According to patent US8071838B2, “Targeted and regional cellular ablation in zebrafish” (Washington University in St. Louis, priority 2003, dated 2011):

Tests used:
[1] = system: unc-CFP-Nitro expressing cells; experiment: nitroreductase-based pro-drug conversion and cellular ablation in transient transgenic zebrafish embryos; assay type: in vivo; conditions: metronidazole 10 mM, 5 mM, 2.5 mM in embryo medium; treated from 62 hpf, imaged at 118 hpf; untreated embryos keep both reporters
Description: In order to determine the efficacy of nitroreductase-based pro-drug conversion and subsequent cellular ablation in transient transgenic zebrafish the following experiment was performed: Male and female zebrafish from a ‘transparent’ strain (e.g., harboring the roy mutation) were allowed to mate over egg collection chambers at light onset. Fertilized eggs were collected every 15 minutes and placed in petri dishes containing embryo medium (0.3X Danieau's solution containing 100 units/ml penicillin and 100 μg/ml streptomycin). Eggs were dispensed into a silicone chambers and oriented such that the cell side was facing up. For injections, DNA plasmids were diluted into 1X Danieau's solution to a final concentration of 10 ng/μl. DNA plasmids used for this experiment included: 1) An alpha-1-tubulin promoter driving expression of a Gal4/VP 16 “driver” protein (α-1-tub::Gal4/VP16); 2) A UAS regulated red control fluorescent reporter protein (UAS::DsRed) and; 3) A UAS regulated cyan fluorescent reporter protein (unc-CFP) fused to nitroreductase (UAS::unc-CFP-Nitro, see FIG. 2 and FIG. 3). […] At 28 hpf, injected embryos were screened for equivalent expression of the DsRed reporter (control cells) and the unc-CFP-Nitro ablation/reporter (targeted cells) using standard fluorescence microscopy. […]

zebrafish = conditions: in vivo; cited from earlier work
nitroreductase = nitroreductase (Escherichia coli, UniProt P38489); conditions: substrate for nitroreductase; due to permeability of the cytotoxic metabolite (Bridgewater et al., 1997; Wilson et al., 2002); cited from earlier work
Chain of nitroreductase (P38489 whole entry): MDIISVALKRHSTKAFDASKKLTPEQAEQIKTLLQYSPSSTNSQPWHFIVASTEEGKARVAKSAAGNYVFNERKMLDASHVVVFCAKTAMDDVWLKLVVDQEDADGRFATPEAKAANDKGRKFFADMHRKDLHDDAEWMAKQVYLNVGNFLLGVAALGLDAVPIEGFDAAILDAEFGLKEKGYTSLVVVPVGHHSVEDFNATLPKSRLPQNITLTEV

SMILES	ablation of reporter-expressing cells (confocal imaging of unc-CFP-Nitro vs DsRed control reporter) [1]	general toxicity (zebrafish)	bystander effect (nitroreductase)
Cc1ncc([N+](=O)[O-])n1CCO [metronidazole]	selective elimination of unc-CFP-Nitro expressing cells	no general toxicity	–
NC(=O)c1cc(N2CC2)c([N+](=O)[O-])cc1[N+](=O)[O-] [CE 1954, 5-(aziridin-1-yl)-2,4-dinitrobenzamide]	–	–	specifically promote the bystander effect
